Data taken from the NIST ThermoML archive (doi:10.1016/j.jct.2011.01.014).

Key:
[1] = Liquid; for mass density: Vibrating tube method; for speed of sound: sound velocity cell
[2] = xn = mol fraction of the nth substance listed; conditions: 101 kPa, Liquid, x2 = 0; for mass density: Vibrating tube method; for speed of sound: sound velocity cell

CC(=O)[O-].[NH3+]CCO [2-hydroxyethylammonium acetate]
[1]
Conditions | mass density, 101 kPa [kg/m3] | mass density, 101.33 kPa [kg/m3] | speed of sound, 101 kPa [m/s] | speed of sound, 101.33 kPa [m/s]
288.15 K | 1154.7 | – | 1817.2 | –
290.65 K | 1153.28 | – | 1810 | –
293.15 K | 1151.87 | – | 1803.2 | –
295.65 K | 1150.45 | – | 1796.8 | –
298.15 K | – | 1149.04 | 1790.7 | 1790.7
300.65 K | 1147.63 | – | 1784.8 | –
303.15 K | 1146.22 | – | 1779 | –
305.65 K | 1144.8 | – | 1773.4 | –
308.15 K | 1143.39 | – | 1767.9 | –
310.65 K | 1141.96 | – | 1762.5 | –
313.15 K | 1140.55 | – | 1757.2 | –
315.15 K | 1139.18 | – | – | –
315.65 K | 1139.18 | – | 1751.9 | –
318.15 K | 1137.82 | – | 1746.5 | –
320.65 K | 1136.45 | – | 1741.3 | –
323.15 K | 1135.08 | – | 1736 | –

CCO [ethanol]
[1], 101 kPa
Conditions | mass density [kg/m3] | speed of sound [m/s]
288.15 K | 793.828 | 1177.8
290.65 K | 791.692 | 1169.2
293.15 K | 789.553 | 1160.6
295.65 K | 787.411 | 1152
298.15 K | 785.261 | 1143.5
300.65 K | 783.106 | 1135
303.15 K | 780.944 | 1126.5
305.65 K | 778.773 | 1118.1
308.15 K | 776.593 | 1109.7
310.65 K | 774.405 | 1101.2
313.15 K | 772.204 | 1092.8
315.65 K | 769.995 | 1084.5
318.15 K | 767.77 | 1076.2
320.65 K | 765.534 | 1067.9
323.15 K | 763.296 | 1059.6

CCO [ethanol] + CC(=O)[O-].[NH3+]CCO
[2]
Conditions | mass density [kg/m3] | speed of sound [m/s]
288.15 K | 793.828 | 1177.8
290.65 K | 791.692 | 1169.2
293.15 K | 789.553 | 1160.6
295.65 K | 787.411 | 1152
298.15 K | 785.261 | 1143.5
300.65 K | 783.106 | 1135
303.15 K | 780.944 | 1126.5
305.65 K | 778.773 | 1118.1
308.15 K | 776.593 | 1109.7
310.65 K | 774.405 | 1101.2
313.15 K | 772.204 | 1092.8
315.65 K | 769.995 | 1084.5
318.15 K | 767.77 | 1076.2
320.65 K | 765.534 | 1067.9
323.15 K | 763.296 | 1059.6
